Experimental data from the NIST ThermoML archive (doi:10.1021/acs.jced.7b00106).
Numbers after ± are expanded uncertainties.

Settings: Hot wire method

FC(F)(F)/C=C/Cl [(E)-1-chloro-3,3,3-trifluoroprop-1-ene]
Settings	thermal conductivity [W/m/K]
313.49 K, 134 kPa, Gas	0.01209 ± 0.00043
313.66 K, 195 kPa, Gas	0.01193 ± 0.00043
313.74 K, 96 kPa, Gas	0.01156 ± 0.00041
313.74 K, 97 kPa, Gas	0.01206 ± 0.00043
313.81 K, 164 kPa, Gas	0.01205 ± 0.00043
314.19 K, 96 kPa, Gas	0.0121 ± 0.00043
314.29 K, 165 kPa, Gas	0.01203 ± 0.00043
314.47 K, 132 kPa, Gas	0.01204 ± 0.00043
314.68 K, 96 kPa, Gas	0.01213 ± 0.00043
314.8 K, 166 kPa, Gas	0.01203 ± 0.00043
315 K, 133 kPa, Gas	0.01215 ± 0.00043
315.2 K, 96 kPa, Gas	0.01218 ± 0.00043
315.34 K, 166 kPa, Gas	0.01208 ± 0.00043
315.56 K, 132 kPa, Gas	0.01212 ± 0.00043
315.75 K, 96 kPa, Gas	0.01223 ± 0.00044
316.33 K, 96 kPa, Gas	0.01227 ± 0.00044
321.04 K, 25085 kPa, Liquid	0.08832 ± 0.0031
321.04 K, 34321 kPa, Liquid	0.09144 ± 0.0067
321.04 K, 34326 kPa, Liquid	0.09107 ± 0.0085
321.05 K, 43820 kPa, Liquid	0.0947 ± 0.0043
321.1 K, 25070 kPa, Liquid	0.08802 ± 0.0071
321.1 K, 34323 kPa, Liquid	0.09161 ± 0.0064
321.12 K, 34308 kPa, Liquid	0.0914 ± 0.0066
321.12 K, 43822 kPa, Liquid	0.09482 ± 0.004
321.33 K, 16965 kPa, Liquid	0.08442 ± 0.0033
321.34 K, 9798 kPa, Liquid	0.08117 ± 0.0037
321.36 K, 5192 kPa, Liquid	0.07831 ± 0.0031
321.4 K, 197 kPa, Gas	0.0125 ± 0.00044
321.4 K, 16967 kPa, Liquid	0.08432 ± 0.0034
321.41 K, 254 kPa, Gas	0.01268 ± 0.00045
321.41 K, 460 kPa, Liquid	0.07538 ± 0.0077
321.42 K, 66597 kPa, Liquid	0.1039 ± 0.0073
321.43 K, 56114 kPa, Liquid	0.09911 ± 0.014
321.44 K, 5187 kPa, Liquid	0.07816 ± 0.0034
321.44 K, 66587 kPa, Liquid	0.1042 ± 0.0037
321.45 K, 34301 kPa, Liquid	0.09197 ± 0.0078
321.46 K, 43814 kPa, Liquid	0.09486 ± 0.0091
321.47 K, 25082 kPa, Liquid	0.08816 ± 0.0027
321.47 K, 34329 kPa, Liquid	0.09187 ± 0.0095
321.47 K, 43832 kPa, Liquid	0.09487 ± 0.008
321.48 K, 458 kPa, Liquid	0.07551 ± 0.0031
321.51 K, 66615 kPa, Liquid	0.1035 ± 0.0043
321.52 K, 56121 kPa, Liquid	0.0993 ± 0.0037
321.52 K, 66605 kPa, Liquid	0.1041 ± 0.012
321.55 K, 34296 kPa, Liquid	0.09167 ± 0.006
321.55 K, 43839 kPa, Liquid	0.09474 ± 0.0059
321.56 K, 25086 kPa, Liquid	0.08833 ± 0.0027
321.56 K, 34311 kPa, Liquid	0.09191 ± 0.0082
321.63 K, 145 kPa, Gas	0.01268 ± 0.00045
321.7 K, 256 kPa, Gas	0.01247 ± 0.00044
321.72 K, 196 kPa, Gas	0.01245 ± 0.00044
321.77 K, 98 kPa, Gas	0.01281 ± 0.00045
321.78 K, 16953 kPa, Liquid	0.08463 ± 0.0026
321.81 K, 9811 kPa, Liquid	0.08084 ± 0.0025
321.85 K, 5178 kPa, Liquid	0.07845 ± 0.0024
321.86 K, 66588 kPa, Liquid	0.1041 ± 0.0088
321.88 K, 56118 kPa, Liquid	0.1004 ± 0.0031
321.89 K, 16957 kPa, Liquid	0.0846 ± 0.0027
321.91 K, 466 kPa, Liquid	0.07595 ± 0.0031
321.91 K, 9793 kPa, Liquid	0.08062 ± 0.0025
321.92 K, 43825 kPa, Liquid	0.09584 ± 0.0029
321.94 K, 145 kPa, Gas	0.01263 ± 0.00045
321.94 K, 34296 kPa, Liquid	0.09207 ± 0.0043
321.94 K, 43828 kPa, Liquid	0.09571 ± 0.0029
321.96 K, 5173 kPa, Liquid	0.07856 ± 0.0025
321.96 K, 34304 kPa, Liquid	0.09237 ± 0.0031
321.97 K, 142 kPa, Gas	0.01247 ± 0.00044
321.97 K, 25089 kPa, Liquid	0.0883 ± 0.0029
321.97 K, 66599 kPa, Liquid	0.1033 ± 0.0088
321.99 K, 66600 kPa, Liquid	0.1033 ± 0.0088
322 K, 56120 kPa, Liquid	0.09953 ± 0.0032
322.01 K, 257 kPa, Gas	0.01246 ± 0.00044
322.01 K, 259 kPa, Gas	0.01279 ± 0.00045
322.01 K, 462 kPa, Liquid	0.07568 ± 0.0028
322.04 K, 43829 kPa, Liquid	0.09557 ± 0.0032
322.05 K, 99 kPa, Gas	0.01242 ± 0.00044
322.05 K, 194 kPa, Gas	0.01256 ± 0.00045
322.06 K, 34292 kPa, Liquid	0.09256 ± 0.0041
322.06 K, 43826 kPa, Liquid	0.09519 ± 0.0031
322.07 K, 189 kPa, Gas	0.01239 ± 0.00044
322.08 K, 34300 kPa, Liquid	0.09194 ± 0.0046
322.09 K, 98 kPa, Gas	0.01259 ± 0.00045
322.09 K, 25078 kPa, Liquid	0.08798 ± 0.0028
322.22 K, 122 kPa, Gas	0.0128 ± 0.00045
322.23 K, 142 kPa, Gas	0.01241 ± 0.00044
322.25 K, 164 kPa, Gas	0.01289 ± 0.00046
322.27 K, 260 kPa, Gas	0.0128 ± 0.00045
322.29 K, 144 kPa, Gas	0.01276 ± 0.00045
322.3 K, 16963 kPa, Liquid	0.08446 ± 0.0034
322.32 K, 188 kPa, Gas	0.01244 ± 0.00044
322.33 K, 99 kPa, Gas	0.01222 ± 0.00044
322.34 K, 258 kPa, Gas	0.0126 ± 0.00045
322.36 K, 9801 kPa, Liquid	0.08109 ± 0.0026
322.36 K, 66579 kPa, Liquid	0.1031 ± 0.0094
322.38 K, 66598 kPa, Liquid	0.1031 ± 0.0057
322.39 K, 193 kPa, Gas	0.01261 ± 0.00045
322.4 K, 5186 kPa, Liquid	0.07821 ± 0.0024
322.4 K, 56115 kPa, Liquid	0.09929 ± 0.0053
322.44 K, 98 kPa, Gas	0.01281 ± 0.00045
322.44 K, 16945 kPa, Liquid	0.08465 ± 0.0034
322.46 K, 43829 kPa, Liquid	0.09512 ± 0.0042
322.47 K, 43824 kPa, Liquid	0.09516 ± 0.0031
322.49 K, 450 kPa, Liquid	0.07575 ± 0.0023
322.49 K, 9815 kPa, Liquid	0.081 ± 0.0025
322.49 K, 34282 kPa, Liquid	0.09204 ± 0.005
322.5 K, 66578 kPa, Liquid	0.1033 ± 0.0094
322.51 K, 34308 kPa, Liquid	0.0922 ± 0.0037
322.51 K, 66603 kPa, Liquid	0.1032 ± 0.0037
322.52 K, 141 kPa, Gas	0.01234 ± 0.00044
322.54 K, 260 kPa, Gas	0.01283 ± 0.00046
322.54 K, 5172 kPa, Liquid	0.07803 ± 0.0028
322.54 K, 25075 kPa, Liquid	0.08816 ± 0.0028
322.55 K, 123 kPa, Gas	0.01279 ± 0.00045
322.56 K, 164 kPa, Gas	0.0126 ± 0.00045
322.61 K, 99 kPa, Gas	0.01223 ± 0.00044
322.63 K, 187 kPa, Gas	0.01233 ± 0.00044
322.63 K, 440 kPa, Liquid	0.0752 ± 0.0023
322.63 K, 43821 kPa, Liquid	0.09452 ± 0.0034
322.64 K, 143 kPa, Gas	0.0128 ± 0.00045
322.64 K, 34270 kPa, Liquid	0.09178 ± 0.0057
322.66 K, 34302 kPa, Liquid	0.09186 ± 0.0028
322.71 K, 25078 kPa, Liquid	0.08769 ± 0.0027
322.72 K, 259 kPa, Gas	0.01251 ± 0.00044
322.78 K, 192 kPa, Gas	0.01262 ± 0.00045
322.81 K, 141 kPa, Gas	0.01231 ± 0.00044
322.82 K, 99 kPa, Gas	0.01285 ± 0.00046
322.82 K, 260 kPa, Gas	0.01282 ± 0.00046
322.83 K, 123 kPa, Gas	0.01245 ± 0.00044
322.89 K, 123 kPa, Gas	0.01281 ± 0.00045
322.89 K, 164 kPa, Gas	0.01245 ± 0.00044
322.9 K, 164 kPa, Gas	0.01257 ± 0.00045
322.9 K, 16956 kPa, Liquid	0.08425 ± 0.0032
322.91 K, 99 kPa, Gas	0.0122 ± 0.00043
322.91 K, 66592 kPa, Liquid	0.1026 ± 0.0033
322.92 K, 186 kPa, Gas	0.0124 ± 0.00044
322.92 K, 66618 kPa, Liquid	0.1032 ± 0.0033
322.96 K, 56154 kPa, Liquid	0.09964 ± 0.0047
322.97 K, 9802 kPa, Liquid	0.08079 ± 0.0036
323.03 K, 143 kPa, Gas	0.01271 ± 0.00045
323.05 K, 5181 kPa, Liquid	0.07837 ± 0.0024
323.06 K, 43815 kPa, Liquid	0.09535 ± 0.0054
323.07 K, 16973 kPa, Liquid	0.08427 ± 0.0027
323.07 K, 43817 kPa, Liquid	0.09505 ± 0.0053
323.08 K, 66614 kPa, Liquid	0.1032 ± 0.0033
323.1 K, 259 kPa, Gas	0.01262 ± 0.00045
